From patent publication US20050159427A1, “N-acylsulfonamide apoptosis promoters” (priority 2003, published 2005) come the findings set out here.

One may read the EC50 as the concentration that produces a half-maximal response.

The structures appear in SMILES notation.

Data set [1] can be described thus: Combination therapy studies with cytotoxic agents. To be noted: with etoposide, vincristine, modified CHOP, doxorubicin, rapamycin and Rituxin®.
For data set [2], the system named is MCF7. The data set is described as follows: Tumor cell viability (TABLE 1). Format: cell-based. As to conditions: Homo sapiens, read-out: EC50 (50% reduction in cell viability); MCF7 (Breast); serum-free conditions, 48 hour treatment; mean ± SEM.
In data set [3] the test system is NCI-H460. The experiment in a line: Tumor cell viability (TABLE 1). Format: cell-based. As to conditions: Homo sapiens, read-out: EC50 (50% reduction in cell viability); NCI-H460 (Non-Small Cell Lung); serum-free conditions, 48 hour treatment; mean ± SEM.
Data set [4] concerns NCI/ADR-RES. The experiment in a line: Tumor cell viability (TABLE 1). Format: cell-based. As to conditions: Homo sapiens, read-out: EC50 (50% reduction in cell viability); NCI/ADR-RES (Breast); serum-free conditions, 48 hour treatment.

As to `CN(C)CC[C@H](CSc1ccccc1)Nc1ccc(S(=O)(=O)NC(=O)c2ccc(N3CCN(Cc4ccccc4-c4ccc(Cl)cc4)CC3)cc2)cc1[N+](=O)[O-]` [EXAMPLE 2, N-(4-(4-((4′-chloro(1,1′-biphenyl)-2-yl)methyl)piperazin-1-yl)benzoyl)-4-(((1R)-3-(dimethylamino)-1-((phenylsulfanyl)methyl)propyl)amino)-3-nitrobenzenesulfonamide], the “effect on efficacy of cytotoxic agents during combination therapy” value in data set [1] is “synergistically enhanced efficacy”. Also, the EC50 is 2000 ± 800 nM in data set [2], 2300 ± 1500 nM in data set [3] and > 10000 nM in data set [4].
